The values below come from ChEMBL document CHEMBL1146460, “Caulibugulones A-F, novel cytotoxic isoquinoline quinones and iminoquinones from the marine bryozoan Caulibugula intermis” (J Nat Prod, 2004).

The nature of the experiment: Cytotoxicity against wild type mouse IC2 cells after 48 hrs by MTT assay. The note with it: IC2, 48 h.

In brackets after ≈: the same amount, converted by molar mass.

Compound `CNC1=C(Cl)C(=O)c2ccncc2C1=O` [CAULIBUGULONE C] showed an IC50 of 0.22 µg/mL (≈ 0.988 µM). Consider `CNC1=C/C(=N\CCO)c2ccncc2C1=O` [CAULIBUGULONE F], for which the IC50 stood at 0.1 µg/mL (≈ 0.432 µM). `CNC1=C(Br)C(=O)c2ccncc2C1=O` [CAULIBUGULONE B]: the IC50 is 0.28 µg/mL (≈ 1.05 µM). To `CNC1=CC(=N)c2ccncc2C1=O` [CAULIBUGULONE E] belongs 0.03 µg/mL (≈ 0.16 µM). Next, `CNC1=CC(=O)c2ccncc2C1=O` [CAULIBUGULONE A]: 0.34 µg/mL (≈ 1.81 µM); `O=C1C=C(NCCO)C(=O)c2cnccc21` [CAULIBUGULONE D]: 1.67 µg/mL (≈ 7.65 µM).
